Results on three compounds are retold here after patent publication US4260682A, “High sensitivity assays for angiotensin converting enzyme” (priority 1979, dated 1981).

Square brackets hold non-standard residues; d marks the D form. Ends that are not written are not given here. Peptide text beside a SMILES is read from it. pGlu = O=C1CC[C@@H](C(=O)O)N1

Data set [1] deals with ACE. The following applies: cited from earlier work.
Data set [2] has as its target T1, ACE (Oryctolagus cuniculus, UniProt P12822).
T1 sequence (P12822 34-1310): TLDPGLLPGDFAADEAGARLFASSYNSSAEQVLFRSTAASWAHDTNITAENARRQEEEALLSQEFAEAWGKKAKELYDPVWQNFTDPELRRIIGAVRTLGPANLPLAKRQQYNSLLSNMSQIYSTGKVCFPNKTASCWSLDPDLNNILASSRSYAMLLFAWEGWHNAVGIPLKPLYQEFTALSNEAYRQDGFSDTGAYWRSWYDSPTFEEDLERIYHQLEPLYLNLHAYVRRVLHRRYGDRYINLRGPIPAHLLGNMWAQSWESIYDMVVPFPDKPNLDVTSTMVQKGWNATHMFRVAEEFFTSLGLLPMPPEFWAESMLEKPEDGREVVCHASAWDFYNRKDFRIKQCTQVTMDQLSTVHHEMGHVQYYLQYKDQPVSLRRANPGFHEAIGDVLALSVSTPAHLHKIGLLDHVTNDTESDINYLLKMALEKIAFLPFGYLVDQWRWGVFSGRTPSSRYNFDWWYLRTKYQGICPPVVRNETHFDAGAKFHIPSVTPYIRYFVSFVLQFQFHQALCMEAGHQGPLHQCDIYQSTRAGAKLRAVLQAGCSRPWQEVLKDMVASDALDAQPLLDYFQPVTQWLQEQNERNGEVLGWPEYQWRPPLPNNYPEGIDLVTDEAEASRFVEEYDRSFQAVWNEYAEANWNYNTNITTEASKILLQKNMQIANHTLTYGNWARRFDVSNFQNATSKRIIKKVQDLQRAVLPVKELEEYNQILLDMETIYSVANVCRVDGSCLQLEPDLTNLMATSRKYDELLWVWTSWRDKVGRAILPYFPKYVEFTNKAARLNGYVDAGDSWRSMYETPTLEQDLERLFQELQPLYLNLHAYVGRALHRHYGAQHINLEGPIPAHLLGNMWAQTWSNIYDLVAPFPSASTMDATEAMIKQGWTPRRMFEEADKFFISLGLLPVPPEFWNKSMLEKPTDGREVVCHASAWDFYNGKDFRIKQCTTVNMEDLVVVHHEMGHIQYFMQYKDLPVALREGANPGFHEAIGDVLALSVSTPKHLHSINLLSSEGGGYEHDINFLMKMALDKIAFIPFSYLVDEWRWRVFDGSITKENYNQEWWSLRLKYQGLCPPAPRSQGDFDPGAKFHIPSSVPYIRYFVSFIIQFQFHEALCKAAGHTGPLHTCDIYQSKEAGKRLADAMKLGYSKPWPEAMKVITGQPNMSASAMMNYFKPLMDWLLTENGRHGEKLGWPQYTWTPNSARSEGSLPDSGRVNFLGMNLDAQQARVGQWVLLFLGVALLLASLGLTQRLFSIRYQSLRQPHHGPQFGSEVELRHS
The following applies: cited from earlier work.

The target of data set [3] is ACE (Homo sapiens, UniProt P12821). Description: Comparison of sensitivity of ACE radioassays. Type of data set: biochemical. From the text: A comparison of the sensitivity of the disclosed assay methods with each other and with prior art assays may be made by considering assays which depend upon measuring the radioactivity of the remnant reaction product. A prior art assay of this type, using ^3 H-HipGlyGly as substrate has been described (Ryan and Chung, supra). Of the two assays disclosed herein, the sulfate stimulated hydrolysis of ^3 H-HipHisLeu is approximately 20 times more sensitive, and the ^3 H-benzoylPheAlaPro assay is about 10 times more sensitive still. The latter is therefore approximately 200 times more sensitive than the assay using ^3 H-HipGlyGly.

Data set [4] relates to ACE. Description: Sulfate and chloride effects on ACE catalysed hydrolysis (general description). The following applies: 0.05 M Hepes, pH 8.0. Type of data set: biochemical. From the text:
An assay for ACE, using HipHisLeu as substrate, is herewith described. The assay is more sensitive than any heretofore disclosed using HipHisLeu as substrate. Maximum sensitivity is achieved by the inclusion of sulfate ions, preferably as sodium sulfate, in the reaction mixture. When 0.1 M NaCl is present in the reaction mixture, sulfate ions are stimulatory from 0.1 M to at least 1.1 M. Maximum stimulation occurs in the range from 0.75 M to 1.1 M Na2 SO4.
(§1) An even more sensitive assay for ACE activity has been developed using the novel compound ^3 H-benzoylPheAlaPro as substrate. This new substrate can be used to assay ACE in human urine in incubations as short as 15 minutes. The response of this substrate to ions is strikingly different from the response of HipHisLeu. […] This difficulty has been solved by the proper choice of extracting solvent. While a variety of organic solvents may be suitable for the extraction step, it is preferred to employ toluene. Approximately 88% of ^3 H-benzoylPhe enters the toluene phase while only 6% of the unhydrolyzed substrate enters the toluene phase, when toluene and the acidified reaction mixture are in approximately equal volumes at room temperatures.
The enzyme is active over a broad pH range with a maximum around pH 8.0, but is at least about 50% active in the range pH 7.0-pH 8.8, for both HipHisLeu and benzoylPheAlaPro. Although the enzyme is active in a variety of buffer systems known in the art, it is preferred for convenience, when using benzoylPheAlaPro as substrate, to conduct the assays in 0.05 M Hepes buffer, pH 8.0 containing 0.15 M sodium chloride. Detailed protocols for carrying out the assay are given in the examples. […] The preferred concentration range is 1×10^-9 M to 7×10^- 5 M.

Another data set addresses T2, Guinea pig serum ACE (Cavia porcellus, UniProt H0UWL7).
T2 sequence (H0UWL7 33-1234): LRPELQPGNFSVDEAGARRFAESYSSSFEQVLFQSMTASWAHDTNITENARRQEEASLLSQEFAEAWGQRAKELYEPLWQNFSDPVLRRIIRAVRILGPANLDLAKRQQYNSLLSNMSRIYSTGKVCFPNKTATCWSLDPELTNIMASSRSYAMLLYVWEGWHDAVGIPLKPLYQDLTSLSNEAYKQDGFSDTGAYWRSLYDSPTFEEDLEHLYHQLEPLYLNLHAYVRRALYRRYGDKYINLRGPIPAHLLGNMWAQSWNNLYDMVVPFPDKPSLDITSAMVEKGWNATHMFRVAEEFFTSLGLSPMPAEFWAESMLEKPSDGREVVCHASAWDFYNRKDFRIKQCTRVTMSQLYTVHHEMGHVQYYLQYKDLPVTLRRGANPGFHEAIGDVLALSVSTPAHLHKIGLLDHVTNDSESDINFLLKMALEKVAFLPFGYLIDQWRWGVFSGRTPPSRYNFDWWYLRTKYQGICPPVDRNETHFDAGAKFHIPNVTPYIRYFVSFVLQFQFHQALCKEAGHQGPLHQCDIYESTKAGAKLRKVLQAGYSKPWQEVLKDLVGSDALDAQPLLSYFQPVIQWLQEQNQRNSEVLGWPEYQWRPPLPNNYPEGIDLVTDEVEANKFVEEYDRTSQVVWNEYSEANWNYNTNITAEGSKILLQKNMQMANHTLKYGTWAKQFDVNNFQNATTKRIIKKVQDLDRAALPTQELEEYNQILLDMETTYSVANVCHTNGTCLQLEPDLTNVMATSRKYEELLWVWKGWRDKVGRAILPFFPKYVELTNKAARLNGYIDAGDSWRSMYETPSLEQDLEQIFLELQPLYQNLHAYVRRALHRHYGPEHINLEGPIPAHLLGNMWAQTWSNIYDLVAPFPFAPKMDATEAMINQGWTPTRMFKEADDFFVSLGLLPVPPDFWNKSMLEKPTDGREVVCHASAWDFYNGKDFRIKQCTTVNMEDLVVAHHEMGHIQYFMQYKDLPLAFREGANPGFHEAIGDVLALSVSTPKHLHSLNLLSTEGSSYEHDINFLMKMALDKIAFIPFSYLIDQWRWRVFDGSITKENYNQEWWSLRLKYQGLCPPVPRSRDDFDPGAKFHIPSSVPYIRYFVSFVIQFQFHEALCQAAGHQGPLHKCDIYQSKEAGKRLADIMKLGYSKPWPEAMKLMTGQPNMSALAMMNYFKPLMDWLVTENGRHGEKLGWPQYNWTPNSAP
Description: Kinetics of benzoyl-Phe-Ala-Pro hydrolysis. Particulars: read-out: apparent Km; 0.05 M Hepes, pH 8.0, 0.15 M NaCl; Lineweaver and Burke plot.

Data set [5] can be described thus: Extraction from the acidified reaction mixture into organic solvent. Type of data set: physicochemical. How it is done:
as §1

ACE (Homo sapiens, UniProt P12821), sequence (P12821 30-1306, species assumed): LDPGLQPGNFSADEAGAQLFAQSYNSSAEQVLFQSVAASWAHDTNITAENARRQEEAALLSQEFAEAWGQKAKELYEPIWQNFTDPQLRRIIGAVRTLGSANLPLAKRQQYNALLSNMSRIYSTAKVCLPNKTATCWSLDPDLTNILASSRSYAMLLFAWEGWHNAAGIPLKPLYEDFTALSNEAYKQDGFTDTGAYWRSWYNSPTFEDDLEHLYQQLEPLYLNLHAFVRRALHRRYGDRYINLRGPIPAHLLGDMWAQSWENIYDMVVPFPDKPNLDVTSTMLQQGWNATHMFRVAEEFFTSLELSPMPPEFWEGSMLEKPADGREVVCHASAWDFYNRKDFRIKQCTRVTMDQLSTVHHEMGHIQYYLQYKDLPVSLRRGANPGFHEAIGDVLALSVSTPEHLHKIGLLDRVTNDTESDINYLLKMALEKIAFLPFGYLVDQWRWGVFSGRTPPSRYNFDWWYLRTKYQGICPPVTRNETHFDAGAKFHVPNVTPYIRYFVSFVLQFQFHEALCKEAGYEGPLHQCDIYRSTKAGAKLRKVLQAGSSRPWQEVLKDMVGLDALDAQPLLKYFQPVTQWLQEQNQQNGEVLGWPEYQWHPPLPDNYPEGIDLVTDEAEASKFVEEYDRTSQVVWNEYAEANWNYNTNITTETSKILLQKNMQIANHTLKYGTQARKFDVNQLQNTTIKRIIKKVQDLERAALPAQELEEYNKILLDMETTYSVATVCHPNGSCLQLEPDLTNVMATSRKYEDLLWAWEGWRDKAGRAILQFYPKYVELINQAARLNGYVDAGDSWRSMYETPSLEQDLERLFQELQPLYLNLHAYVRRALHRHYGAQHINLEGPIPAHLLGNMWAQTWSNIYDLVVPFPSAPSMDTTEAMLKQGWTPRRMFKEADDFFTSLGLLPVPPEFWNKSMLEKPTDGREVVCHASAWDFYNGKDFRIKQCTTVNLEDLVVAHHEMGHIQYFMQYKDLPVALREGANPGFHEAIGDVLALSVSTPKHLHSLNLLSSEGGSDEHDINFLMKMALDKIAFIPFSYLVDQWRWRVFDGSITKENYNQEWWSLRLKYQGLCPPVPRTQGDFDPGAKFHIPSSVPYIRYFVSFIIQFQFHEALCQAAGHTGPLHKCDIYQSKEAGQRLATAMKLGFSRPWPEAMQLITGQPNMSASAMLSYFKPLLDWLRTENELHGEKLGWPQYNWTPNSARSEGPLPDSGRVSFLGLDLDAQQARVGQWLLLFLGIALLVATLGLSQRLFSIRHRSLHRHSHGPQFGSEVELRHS
Description for Guinea pig serum ACE: Kinetics of Benzoyl-Phe-Ala-Pro Hydrolysis
The apparent Km for the ACE catalyzed hydrolysis of benzoyl-Phe-Ala-Pro was measured in the following manner. […] Guinea pig serum was diluted 1:1000 to provide the enzyme. A mixture of 50 μl diluted serum and 50 μl of substrate, diluted in the reaction buffer to provide the appropriate substrate concentration for each experiment, was incubated at 37° C. for 10 minutes. At the end of the incubation, 1.0 ml of 0.1 M HCl was added to stop the reaction. The reaction mixture was then extracted with 1.0 ml toluene, and a 0.5 ml aliquot of the toluene phase was counted in a scintillation counter.

As for `NC(N)=NCCC[C@H](NC(=O)[C@H](Cc1ccccc1)NC(=O)[C@@H]1CCCN1C(=O)[C@H](CO)NC(=O)[C@H](Cc1ccccc1)NC(=O)CNC(=O)[C@@H]1CCCN1C(=O)[C@@H]1CCCN1C(=O)[C@@H](N)CCCN=C(N)N)C(=O)O` [bradykinin, ArgProProGlyPheSerProPheArg] (H-RPPGFSPFR-OH), the “competitive substrate of ACE” value with ACE [1] is listed as “competitive substrates”.

Consider <GluLysTrpAlaPro ([pGlu]KWAP) [BPP5a], for which, in the data set with ACE [2], the “substrate for the enzyme” value was “could serve as a substrate for the enzyme”. In addition, the “cleavage in the presence of chloride” value in the data set with ACE [2] (vs. buffer of undisclosed composition) is “proceeded more slowly in the presence of chloride”. Besides, the “competitive substrate of ACE” value in the data set on ACE [1] is listed as “competitive substrates”.

The Km is the substrate concentration at which the rate is half of its maximum. Regarding ^3 H-benzoylPheAlaPro, at ACE [3], the “sensitivity relative to the sulfate-stimulated HipHisLeu assay” value is “about 10 times”. The “sensitivity relative to the assay using ^3 H-HipGlyGly” value at ACE [3] (radioactivity of remnant product, HipHisLeu assay sulfate stimulated) is reported as “approximately 200 times”. The “hydrolysis in the absence of any added salt” value in the data set on ACE [4] was “ACE will hydrolyze”. Further, the Km at Guinea pig serum ACE was 14 µM. The “extraction into ethyl acetate” value in data set [5] (acidified with dilute hydrochloric acid) is on record as “extracted almost quantitatively into ethyl acetate”. Moreover, the “fraction entering the toluene phase” value in data set [5] (toluene and acidified reaction mixture in approximately equal volumes, room temperature) was determined as 6%.
